Experimental data taken from ChEMBL document CHEMBL4325840, “Design, synthesis and evaluation of novel hybrids between 4-anilinoquinazolines and substituted triazoles as potent cytotoxic agents” (Bioorg Med Chem Lett, 2018).
Structures can show the parent of a compound that is named as a salt.

Experiments:
SK-LU-1 [1] = assay: Cytotoxicity against human SK-LU-1 cells after 3 days by MTT assay; type: functional, cell-based
HepG2 [2] = assay: Cytotoxicity against human HepG2 cells after 3 days by MTT assay; type: functional, cell-based
KB [3] = assay: Cytotoxicity against human KB cells after 3 days by MTT assay; type: functional, cell-based
KB [4] = assay: Potency index, ratio of erlotinib IC50 to compound IC50 for human KB cells; type: functional
SK-LU-1 [5] = assay: Potency index, ratio of erlotinib hydrochloride IC50 to compound IC50 for human SK-LU-1 cells; type: functional
HepG2 [6] = assay: Potency index, ratio of erlotinib hydrochloride IC50 to compound IC50 for human HepG2 cells; type: functional
KB [7] = assay: Potency index, ratio of erlotinib hydrochloride IC50 to compound IC50 for human KB cells; type: functional
HepG2 [8] = assay: Potency index, ratio of erlotinib IC50 to compound IC50 for human HepG2 cells; type: functional
SK-LU-1 [9] = assay: Potency index, ratio of erlotinib IC50 to compound IC50 for human SK-LU-1 cells; type: functional

Compound | IC50 (SK-LU-1 [1]; Homo sapiens, SK-LU-1, 72 h) [µM] | IC50 (HepG2 [2]; Homo sapiens, HepG2, 72 h) [µM] | IC50 (KB [3]; Homo sapiens, KB, 72 h) [µM] | Ratio IC50 (KB [4]) | Ratio IC50 (SK-LU-1 [5]) | Ratio IC50 (HepG2 [6]) | Ratio IC50 (KB [7]) | Ratio IC50 (HepG2 [8]) | Ratio IC50 (SK-LU-1 [9]) | IC50 (SK-LU-1 [1]; sk-lu-1) [µM] | IC50 (KB [3]; kb) [µM] | IC50 (HepG2 [2]; hepg2) [µM]
O=[N+]([O-])c1cccc(-n2cc(-c3cccc(Nc4ncnc5ccccc45)c3)nn2)c1 | 260 | 287 | 104 | – | – | – | – | – | – | – | – | –
N#Cc1cc(-n2cc(-c3cccc(Nc4ncnc5cc6c(cc45)OCCCO6)c3)nn2)ccc1C(F)(F)F | 1.81 | 1.61 | 1.49 | <=100 | <=100 | <=100 | <=100 | <=100 | <=100 | – | – | –
O=[N+]([O-])c1ccc(-n2cc(-c3cccc(Nc4ncnc5ccccc45)c3)nn2)cc1 | 9.16 | 8.11 | 5.47 | <=100 | <=100 | <=100 | <=100 | <=100 | <=100 | – | – | –
N#Cc1cc(-n2cc(-c3cccc(Nc4ncnc5ccccc45)c3)nn2)ccc1C(F)(F)F | 4.5 | 1.86 | 1.46 | <=100 | <=100 | <=100 | <=100 | <=100 | <=100 | – | – | –
O=[N+]([O-])c1cccc(-n2cc(-c3cccc(Nc4ncnc5cc6c(cc45)OCCO6)c3)nn2)c1 | 5.67 | 0.88 | 3.51 | <=100 | <=100 | <=100 | <=100 | <=100 | <=100 | – | – | –
C#Cc1cccc(Nc2ncnc3cc4c(cc23)OCCCO4)c1 | 80.7 | 69.9 | 54.8 | – | – | – | – | – | – | – | – | –
O=[N+]([O-])c1ccccc1-n1cc(-c2cccc(Nc3ncnc4cc5c(cc34)OCO5)c2)nn1 | 217 | 207 | 193 | – | – | – | – | – | – | – | – | –
O=[N+]([O-])c1ccccc1-n1cc(-c2cccc(Nc3ncnc4cc5c(cc34)OCCCO5)c2)nn1 | 14.8 | 43.4 | 20.4 | <=100 | <=100 | <=100 | <=100 | <=100 | <=100 | – | – | –
O=[N+]([O-])c1ccc(-n2cc(-c3cccc(Nc4ncnc5cc6c(cc45)OCCO6)c3)nn2)cc1 | 54.8 | 230 | 79.1 | – | – | – | – | – | – | – | – | –
C#Cc1cccc(Nc2ncnc3cc(OCCOC)c(OCCOC)cc23)c1 [ERLOTINIB] | – | – | – | – | – | – | – | – | – | 99.8 | 13 | –
C#Cc1cccc(Nc2ncnc3cc4c(cc23)OCCO4)c1 | 3.36 | 2.84 | 2.6 | <=100 | <=100 | <=100 | <=100 | <=100 | <=100 | – | – | –
C#Cc1cccc(Nc2ncnc3ccccc23)c1 | 4.16 | 4.16 | 5.46 | <=100 | <=100 | <=100 | <=100 | <=100 | <=100 | – | – | –
O=[N+]([O-])c1cccc(-n2cc(-c3cccc(Nc4ncnc5cc6c(cc45)OCO6)c3)nn2)c1 | 6.66 | 6.88 | 6.35 | <=100 | <=100 | <=100 | <=100 | <=100 | <=100 | – | – | –
C#Cc1cccc(Nc2ncnc3cc4c(cc23)OCO4)c1 | 64.9 | 26.2 | 75.6 | – | – | – | – | – | – | – | – | –
O=[N+]([O-])c1ccccc1-n1cc(-c2cccc(Nc3ncnc4ccccc34)c2)nn1 | 4.76 | 4.64 | 5.5 | <=100 | <=100 | <=100 | <=100 | <=100 | <=100 | – | – | –
N#Cc1cc(-n2cc(-c3cccc(Nc4ncnc5cc6c(cc45)OCO6)c3)nn2)ccc1C(F)(F)F | 27.5 | 6.1 | 4.59 | <=100 | <=100 | <=100 | <=100 | <=100 | <=100 | – | – | –
O=[N+]([O-])c1ccc(-n2cc(-c3cccc(Nc4ncnc5cc6c(cc45)OCO6)c3)nn2)cc1 | 44.5 | 11.3 | 30.1 | – | – | – | – | – | – | – | – | –
O=[N+]([O-])c1ccccc1-n1cc(-c2cccc(Nc3ncnc4cc5c(cc34)OCCO5)c2)nn1 | 1.03 | 0.14 | 0.04 | <=100 | <=100 | <=100 | <=100 | <=100 | <=100 | – | – | –
N#Cc1cc(-n2cc(-c3cccc(Nc4ncnc5cc6c(cc45)OCCO6)c3)nn2)ccc1C(F)(F)F | 4.44 | 6.09 | 0.27 | <=100 | <=100 | <=100 | <=100 | <=100 | <=100 | – | – | –
C#Cc1cccc(Nc2ncnc3cc(OCCOC)c(OCCOC)cc23)c1 [ERLOTINIB HYDROCHLORIDE] | – | – | – | – | – | – | – | – | – | 31.2 | 49.6 | 14.2
O=[N+]([O-])c1cccc(-n2cc(-c3cccc(Nc4ncnc5cc6c(cc45)OCCCO6)c3)nn2)c1 | 230 | 76.8 | 53.2 | – | – | – | – | – | – | – | – | –
Cc1c2ccncc2c(C)c2c1[nH]c1ccccc12 [ELLIPTECINE] | 1.38 | 2.72 | 1.95 | – | – | – | – | – | – | – | – | –
